Molecules are shown by their SMILES. Like-named read-outs stand apart in the source and are kept apart here.

What all share (type): physicochemical
A short description of data set [1]: Solubility Experiment 3 (chlorobenzene, visual observation). The note with it: organic solvent or mixture, thermodynamic from solid, 1 mg in 1 mL chlorobenzene. The method, then: 1 mg of each compound shown in Table 1 [BBT-(1)-BBT-(14)] was added to 1 mL of a solvent (chlorobenzene) and the mixture was heated to 100° C. or 140° C., and the solubility was evaluated by visual observation.

The nature of data set [2]: Solubility Experiment 1 (1,2-dichlorobenzene). Particulars: 5 mg in 1.6 g 1,2-dichlorobenzene, heated to 150° C. As to the method: Into a 20-ml glass vessel equipped with a stirring apparatus were placed 5 mg of BBT-(1), and 1.6 g of 1,2-dichlorobenzene.
(§1) On the other hand, using BBT-(11): (FPTBBT) synthesized in Reference Example 1, instead of BBT-(1), the preparation of a solution of BBT-(11) in 1,2-dichlorobenzene was attempted in accordance with [Solubility Experiment 1]. […] The suspension was filtered through a 0.2-μm filter, and then dropped onto a silicon wafer as described above. And then, without any treatment, the solvent component was volatilized, but the formation of a thin film of BBT-(11) was not confirmed. Meanwhile, using BBT-(11), instead of BBT-(1), the preparation of a solution of BBT-(11) in mesitylene was attempted in accordance with [Solubility Experiment 2]. […] The suspension was filtered through a 0.2-μm filter, and then dropped onto a silicon wafer as described above. And then, without any treatment, the solvent component was volatilized, but the formation of a thin film of BBT-(11) was not confirmed.

Data set [3] in a line: Solubility Experiment 2 (mesitylene). The note with it: 5 mg in 1.6 g mesitylene, heated to 100° C. The method, then:
Into a 20-ml glass vessel equipped with a stirring apparatus were placed 5 mg of BBT-(1), and 1.6 g of mesitylene.
as §1

The mark [4] stands for this setting: heated to 100° C., read-out: Solubility chlorobenzene (° C.) 100.
[5] abbreviates: heated to 140° C., read-out: Solubility chlorobenzene (° C.) 140.

For the compound `CC(F)(F)Oc1ccc(-c2ccc(-c3c4c(c(-c5ccc(-c6ccc(OC(C)(F)F)cc6)s5)c5nsnc35)N=S=N4)s2)cc1` [BBT-(6)], the values for the solubility in data set [1] (setting [4]) and in data set [1] (setting [5]) were less than 1000 µg/mL and more than 1000 µg/mL, respectively.

With `FC(F)(F)Oc1ccc(-c2ccc(-c3c4c(c(-c5ccc(-c6ccc(OC(F)(F)F)cc6)s5)c5nsnc35)N=S=N4)s2)cc1` [BBT-(1)], the solubility in data set [1] (setting [4]) and in data set [1] (setting [5]) was more than 1000 µg/mL each time. The “Solubility in 1,2-dichlorobenzene” value in data set [2] is listed as “completely dissolved”. Further, the Solubility in mesitylene entry in data set [3] was “completely dissolved”.

Consider `CCCCCCCCCc1ccc(-c2ccc(-c3c4c(c(-c5ccc(-c6ccc(CCCCCCCCC)cc6)s5)c5nsnc35)N=S=N4)s2)cc1` [BBT-(14), reference compound], for which the solubility in data set [1] (setting [4]) and in data set [1] (setting [5]) was more than 1000 µg/mL each time.

For `CCCCCCCCCCOC(F)(F)c1ccc(-c2ccc(-c3c4c(c(-c5ccc(-c6ccc(C(F)(F)OCCCCCCCCCC)cc6)s5)c5nsnc35)N=S=N4)s2)cc1` [BBT-(10)], the solubility in data set [1] (setting [4]) and in data set [1] (setting [5]) was more than 1000 µg/mL throughout.

As to `CC(F)(F)c1ccc(-c2ccc(-c3c4c(c(-c5ccc(-c6ccc(C(C)(F)F)cc6)s5)c5nsnc35)N=S=N4)s2)cc1` [BBT-(4)], the solubility – broadly, the concentration that dissolves in the medium under given conditions – in data set [1] (setting [4]) was less than 1000 µg/mL; in data set [1] (setting [5]) it was more than 1000 µg/mL.

`FC(F)(F)Oc1cccc(-c2ccc(-c3c4c(c(-c5ccc(-c6cccc(OC(F)(F)F)c6)s5)c5nsnc35)N=S=N4)s2)c1` [BBT-(2)]: the solubility in data set [1] (setting [4]) and in data set [1] (setting [5]) was more than 1000 µg/mL each time.

As to `Cc1ccc(-c2ccc(-c3c4c(c(-c5ccc(-c6ccc(C)cc6)s5)c5nsnc35)N=S=N4)s2)cc1` [BBT-(12), reference compound], the solubility in data set [1] (setting [4]) and in data set [1] (setting [5]) was more than 1000 µg/mL in each case.

Take `CCCCCCCCCC(F)(F)Oc1ccc(-c2ccc(-c3c4c(c(-c5ccc(-c6ccc(OC(F)(F)CCCCCCCCC)cc6)s5)c5nsnc35)N=S=N4)s2)cc1` [BBT-(7)]: the solubility in data set [1] (setting [4]) and in data set [1] (setting [5]) was more than 1000 µg/mL throughout.

As for `FC(F)(F)c1ccc(-c2ccc(-c3c4c(c(-c5ccc(-c6ccc(C(F)(F)F)cc6)s5)c5nsnc35)N=S=N4)s2)cc1` [BBT-(11), reference compound], the solubility in data set [1] (setting [4]) and in data set [1] (setting [5]) was less than 1000 µg/mL each time. In addition, the “Solubility in 1,2-dichlorobenzene” value in data set [2] is on record as “not completely dissolved”. Further, in data set [3], the Solubility in mesitylene entry is listed as “not completely dissolved”.

On to `CCCCCCCCCCC(F)(F)c1ccc(-c2ccc(-c3c4c(c(-c5ccc(-c6ccc(C(F)(F)CCCCCCCCCC)cc6)s5)c5nsnc35)N=S=N4)s2)cc1` [BBT-(5)], for which the solubility in data set [1] (setting [4]) and in data set [1] (setting [5]) was more than 1000 µg/mL throughout.

On to `COc1ccc(-c2ccc(-c3c4c(c(-c5ccc(-c6ccc(OC)cc6)s5)c5nsnc35)N=S=N4)s2)cc1` [BBT-(13), reference compound], for which the solubility was less than 1000 µg/mL in data set [1] (setting [4]) and more than 1000 µg/mL in data set [1] (setting [5]).

For the compound `FC(F)(F)Oc1ccccc1-c1ccc(-c2c3c(c(-c4ccc(-c5ccccc5OC(F)(F)F)s4)c4nsnc24)N=S=N3)s1` [BBT-(3)], the solubility in data set [1] (setting [4]) and in data set [1] (setting [5]) was more than 1000 µg/mL throughout.

On to `CC(C)CC(F)c1ccc(-c2ccc(-c3c4c(c(-c5ccc(-c6ccc(C(F)CC(C)C)cc6)s5)c5nsnc35)N=S=N4)s2)cc1` (stereo not drawn) [BBT-(9)], for which the solubility in data set [1] (setting [4]) was less than 1000 µg/mL; in data set [1] (setting [5]), more than 1000 µg/mL.
